In brackets after ≈: the same amount, converted by molar mass. Where two headings read alike, the source gives them in different places.
Columns and labels:
E. coli ATCC 25922 [1] = tested on: E. coli ATCC 25922
Method: (§1) The bacteria Staphylococcus aureus ATCC 25923, Staphylococcus aureus ATCC 43300,Escherichia coli ATCC 25922 and Pseudomonas aeruginosa ATCC 27853 were cultivated on tryptone-soy agar (TSA; Oxoid) for 24 h at 37 °C. Broth microdilution susceptibility tests were performed as described in the Committee Laboratory Standards (CLSI) reference method M07-A8 [41]. Bacteria inocula (5 µL) containing 10^6 CFU/mL were used. The final concentration of dendrimers ranged from 256 to 2 µg/mL, polymyxin B and penicillin G from 8 to 0,15 µg/mL (or 5.8 to 0.1 µM and 21.5 to 0.4 µM, respectively for polymyxin B and penicillin G) were the reference compounds. The plates were incubated at 35 °C and were read after 18 or 24 h depending on the bacterial strain. Minimal Inhibitory Concentrations (MICs) were defined as the lowest drug concentration that reduced the growth by 100%.

P. aeruginosa ATCC 27853 = tested on: P. aeruginosa ATCC 27853
Method: as §1

S. aureus ATCC 43300 = tested on: S. aureus ATCC 43300
Method: as §1

S. aureus ATCC 25923 = assay: microbe, parasite or virus in culture
Method: as §1

E. coli ATCC 25922 [2] = assay type: cell-based, Escherichia coli; conditions: for Activity (MIC) at 200 µM Na+ or K+ concentration / Change of bioactivity on increase of Ca2+ and Mg2+ concentration / Sensitivity of MIC to increase of Na+ or K+ concentration: E. coli ATCC 25922; for Activity (MIC) at 200 µM Na+ or K+ concentration / Sensitivity of MIC to increase of Na+ or K+ concentration: triplicate; for Change of bioactivity on increase of Ca2+ and Mg2+ concentration: Ca2+ and Mg2+ up to 5 mM; for Sensitivity of MIC to increase of Na+ or K+ concentration: Na+ or K+ up to 100 µM, CAMHB with added NaCl or KCl
Method: as §1
The effect of salt concentration on the antimicrobial activity of two dendrimers was tested by determining the MICs under a variety of cations concentrations. CAMHB used in the assay was altered by the addition of salt. NaCl or KCl were added to the media to a final concentrations of 10, 50, 100, 200, 500 mM, wheareas CaCl2 or MgCl2 were added to the media to a final concentrations of 0.5, 1.5, 2.5, 5.5, 10.5, and 20.5 mM. Additionally, similar test was performed using MHB (without Ca^2+, Mg^2+) for divalent cations Ca^2+ and Mg^2+. Experiment was performed in triplicate.

human red blood cells = assay: Hemolysis assay; assay type: cell-based; conditions: 1% hematocrit in PBS pH 7.4, 30 min at 23 °C, from Figure 4
Method: Dendrimer-induced hemolysis was measured as previously reported. Briefly, human red blood cells obtained from healthy volunteers, were suspended in phosphate buffered saline (PBS, pH 7.4). Prepared suspension of 1% hematocrit was incubated with serial concentration of dendrimers for 30 min at 23 °C. After centrifugation (4,000 rpm, 5 min) the absorbance of supernatant was measured at 540 nm (Spectrostar Omega, BMG Labtech, Ortenberg, Germany). A value of 100% hemolysis was determined by incubation of erythrocytes with double-distilled water (30 min at 23 °C). In a control experiment, cells were incubated in buffer without peptide and absorbance at 540 nm value was used as a blank:
A: Absorbance of the samples incubated with dendrimers;
Ab: Absorbance of the blank samples;
A100%: Absorbance of the reference;
Ac: Absorbance of red blood cells in PBS, hematocrit 1%.

[3] = broth microdilution CLSI M07-A8, CAMHB with 0.5 mM Ca2+ and Mg2+, 35 °C, 18 or 24 h
[4] = methicillin-resistant strain, broth microdilution CLSI M07-A8, CAMHB with 0.5 mM Ca2+ and Mg2+, 35 °C, 18 or 24 h
[5] = broth microdilution CLSI M07-A8, CAMHB with 0.5 mM Ca2+ and Mg2+, no K+ and Na+, 35 °C, read after 18 or 24 h, MIC = lowest concentration reducing growth by 100%

Structure (SMILES) | Minimal inhibitory concentration (MIC), E. coli ATCC 25922 (E. coli ATCC 25922 [1]; [3]) [µM] | Minimal inhibitory concentration (MIC), P. aeruginosa ATCC 27853 (P. aeruginosa ATCC 27853; [3]) [µM] | Minimal inhibitory concentration (MIC), S. aureus ATCC 43300 (S. aureus ATCC 43300; [4]) [µM] | Minimal inhibitory concentration (MIC), S. aureus ATCC 25923 (S. aureus ATCC 25923; [5]) [µM] | Minimal inhibitory concentration (MIC), E. coli ATCC 25922 (E. coli ATCC 25922 [1]; ATCC 25922, 24 h) [µM] | Minimal inhibitory concentration (MIC), P. aeruginosa ATCC 27853 (P. aeruginosa ATCC 27853; ATCC 27853, 24 h) [µM] | Minimal inhibitory concentration (MIC), S. aureus ATCC 43300 (S. aureus ATCC 43300; ATCC 43300, 24 h) [µM] | Minimal inhibitory concentration (MIC), S. aureus ATCC 25923 (S. aureus ATCC 25923; ATCC 25923, 24 h) [µM] | also measured
N[C@@H](CCCCNC(=O)OCc1ccccc1Cl)C(=O)NCCNC(=O)CCN(CCC[C@@H](C(=O)NCCc1c[nH]c2ccccc12)N(CCC(=O)NCCNC(=O)[C@@H](N)CCCCNC(=O)OCc1ccccc1Cl)CCC(=O)NCCNC(=O)[C@@H](N)CCCCNC(=O)OCc1ccccc1Cl)CCC(=O)NCCNC(=O)[C@@H](N)CCCCNC(=O)OCc1ccccc1Cl [Dendrimer 3f] | 7.9 (≈ 15.2 µg/mL) | 60 (≈ 115 µg/mL) | 20.4 (≈ 39.1 µg/mL) | 0.93 (≈ 1.78 µg/mL) | – | – | – | – | MIC in presence of Mg2+ (E. coli ATCC 25922 [2]; ATCC 25922, 24 h): 119.8 µM; Activity (MIC) at 200 µM Na+ or K+ concentration (E. coli ATCC 25922 [2]): retained much activity; Change of bioactivity on increase of Ca2+ and Mg2+ concentration (E. coli ATCC 25922 [2]): slow decrease; Sensitivity of MIC to increase of Na+ or K+ concentration (E. coli ATCC 25922 [2]): not sensitive
N[C@@H](CCCCNC(=O)OCc1ccccc1Cl)C(=O)NCCNC(=O)CCN(CCC[C@@H](C(=O)NCCc1cnc[nH]1)N(CCC(=O)NCCNC(=O)[C@@H](N)CCCCNC(=O)OCc1ccccc1Cl)CCC(=O)NCCNC(=O)[C@@H](N)CCCCNC(=O)OCc1ccccc1Cl)CCC(=O)NCCNC(=O)[C@@H](N)CCCCNC(=O)OCc1ccccc1Cl [Dendrimer 3g] | – | – | – | – | 211 (≈ 394 µg/mL) | 211 (≈ 394 µg/mL) | 16.4 (≈ 30.7 µg/mL) | 51 (≈ 95.3 µg/mL) | –
NCCCC[C@H](NC(=O)OCc1ccccc1Cl)C(=O)NCCNC(=O)CCN(CCC[C@@H](C(=O)NCCc1cnc[nH]1)N(CCC(=O)NCCNC(=O)[C@H](CCCCN)NC(=O)OCc1ccccc1Cl)CCC(=O)NCCNC(=O)[C@H](CCCCN)NC(=O)OCc1ccccc1Cl)CCC(=O)NCCNC(=O)[C@H](CCCCN)NC(=O)OCc1ccccc1Cl [Dendrimer 3c] | – | – | – | – | 141 (≈ 264 µg/mL) | 141 (≈ 264 µg/mL) | 141 (≈ 264 µg/mL) | 24.7 (≈ 46.2 µg/mL) | –
CC1(C)S[C@@H]2[C@H](NC(=O)Cc3ccccc3)C(=O)N2[C@H]1C(=O)O [Penicillin G, reference compound] | – | – | – | – | – | – | – | – | MIC (S. aureus ATCC 25923; Staphylococcus aureus, ATCC25923, read-out: Minimal inhibitory concentration (MIC), S. aureus ATCC 25923): 6.6 µM (≈ 2.21 µg/mL)
CCCCCCCCCCCCNC(=O)[C@H](CCCN(CCC(=O)NCCNC(=O)[C@H](CCCCN)NC(=O)OCc1ccccc1Cl)CCC(=O)NCCNC(=O)[C@H](CCCCN)NC(=O)OCc1ccccc1Cl)N(CCC(=O)NCCNC(=O)[C@H](CCCCN)NC(=O)OCc1ccccc1Cl)CCC(=O)NCCNC(=O)[C@H](CCCCN)NC(=O)OCc1ccccc1Cl [Dendrimer 3d] | – | – | – | – | 1.85 (≈ 3.59 µg/mL) | – | – | 1.85 (≈ 3.59 µg/mL) | –
N[C@@H](CCCCNC(=O)OCc1ccccc1Cl)C(=O)NCCNC(=O)CCN(CCC[C@@H](C(=O)Nc1cccnc1)N(CCC(=O)NCCNC(=O)[C@@H](N)CCCCNC(=O)OCc1ccccc1Cl)CCC(=O)NCCNC(=O)[C@@H](N)CCCCNC(=O)OCc1ccccc1Cl)CCC(=O)NCCNC(=O)[C@@H](N)CCCCNC(=O)OCc1ccccc1Cl [Dendrimer 3e] | 142 (≈ 263 µg/mL) | 142 (≈ 263 µg/mL) | 142 (≈ 263 µg/mL) | 16.6 (≈ 30.7 µg/mL) | – | – | – | – | Hemotoxicity (level) (human red blood cells): highest hemotoxicity and high
CCCCCCCCCCCCNC(=O)[C@H](CCCN(CCC(=O)NCCNC(=O)[C@@H](N)CCCCNC(=O)OCc1ccccc1Cl)CCC(=O)NCCNC(=O)[C@@H](N)CCCCNC(=O)OCc1ccccc1Cl)N(CCC(=O)NCCNC(=O)[C@@H](N)CCCCNC(=O)OCc1ccccc1Cl)CCC(=O)NCCNC(=O)[C@@H](N)CCCCNC(=O)OCc1ccccc1Cl [Dendrimer 3h] | – | – | – | – | 7.9 (≈ 15.4 µg/mL) | 32 (≈ 62.2 µg/mL) | 1.85 (≈ 3.59 µg/mL) | 3.7 (≈ 7.19 µg/mL) | –
NCCCC[C@H](NC(=O)OCc1ccccc1Cl)C(=O)NCCNC(=O)CCN(CCC[C@@H](C(=O)NCCc1c[nH]c2ccccc12)N(CCC(=O)NCCNC(=O)[C@H](CCCCN)NC(=O)OCc1ccccc1Cl)CCC(=O)NCCNC(=O)[C@H](CCCCN)NC(=O)OCc1ccccc1Cl)CCC(=O)NCCNC(=O)[C@H](CCCCN)NC(=O)OCc1ccccc1Cl [Dendrimer 3b] | 12.1 (≈ 23.2 µg/mL) | 51 (≈ 97.8 µg/mL) | 12.1 (≈ 23.2 µg/mL) | 1.87 (≈ 3.59 µg/mL) | – | – | – | – | MIC in presence of Ca2+ (E. coli ATCC 25922 [2]; ATCC 25922, 24 h): 119.8 µM; Activity (MIC) at 200 µM Na+ or K+ concentration (E. coli ATCC 25922 [2]): retained much activity; Change of bioactivity on increase of Ca2+ and Mg2+ concentration (E. coli ATCC 25922 [2]): slow decrease; Sensitivity of MIC to increase of Na+ or K+ concentration (E. coli ATCC 25922 [2]): not sensitive
NCCCC[C@H](NC(=O)OCc1ccccc1Cl)C(=O)NCCNC(=O)CCN(CCC[C@@H](C(=O)Nc1cccnc1)N(CCC(=O)NCCNC(=O)[C@H](CCCCN)NC(=O)OCc1ccccc1Cl)CCC(=O)NCCNC(=O)[C@H](CCCCN)NC(=O)OCc1ccccc1Cl)CCC(=O)NCCNC(=O)[C@H](CCCCN)NC(=O)OCc1ccccc1Cl [Dendrimer 3a] | >252 | >252 | >252 | 2.85 (≈ 5.28 µg/mL) | – | – | – | – | Hemotoxicity (level) (human red blood cells): much lower toxicity and low

— publication PMC6270063, “Novel Antimicrobial Peptide Dendrimers with Amphiphilic Surface and Their Interactions with Phospholipids — Insights from Mass Spectrometry” (Molecules, 2013)
